Assay results: ChEMBL document CHEMBL2429722, “Synthesis of the non-peptidic snail toxin 6-bromo-2-mercaptotryptamine dimer (BrMT)(2), its lower and higher thio homologs and their ability to modulate potassium ion channels” (Bioorg Med Chem Lett, 2013)

What was measured:
Assay type in all cases: cell-based
Settings in all cases: Oocyte
[1] = target: Potassium voltage-gated channel subfamily A member 1 (Mus musculus) (UniProt P16388); test: Inhibition of mouse Kv1.1 channel expressed in Xenopus laevis oocytes assessed as decrease in +60 mV current-induced time constant of activation at 8 uM after 2 mins by two-electrode voltage clamp assay relative to control
Sequence of Potassium voltage-gated channel subfamily A member 1 (Mus musculus) (P16388 whole entry): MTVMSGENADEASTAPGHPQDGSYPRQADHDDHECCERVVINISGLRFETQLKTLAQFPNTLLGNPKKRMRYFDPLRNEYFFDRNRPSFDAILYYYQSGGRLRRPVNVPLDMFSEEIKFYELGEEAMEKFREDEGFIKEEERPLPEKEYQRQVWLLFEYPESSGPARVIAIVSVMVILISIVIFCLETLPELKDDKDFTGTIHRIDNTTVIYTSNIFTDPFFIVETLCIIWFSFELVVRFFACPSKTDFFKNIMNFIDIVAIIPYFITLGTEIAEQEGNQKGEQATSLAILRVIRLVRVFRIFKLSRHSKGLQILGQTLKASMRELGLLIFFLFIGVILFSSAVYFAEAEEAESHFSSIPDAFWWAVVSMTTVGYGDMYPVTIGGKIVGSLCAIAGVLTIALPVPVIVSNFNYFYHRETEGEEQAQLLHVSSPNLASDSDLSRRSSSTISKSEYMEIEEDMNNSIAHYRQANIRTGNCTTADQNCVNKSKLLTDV

[2] = target: Potassium voltage-gated channel subfamily A member 1 (Mus musculus) (UniProt P16388); test: Inhibition of mouse Kv1.1 channel expressed in Xenopus laevis oocytes assessed as -50 mV current-induced channel closing time at 8 uM after 2 mins by two-electrode voltage clamp assay (reference value: 14.6 +/- 0.3 ms)
[3] = target: Potassium voltage-gated channel subfamily A member 1 (Mus musculus) (UniProt P16388); test: Inhibition of mouse Kv1.1 channel expressed in Xenopus laevis oocytes assessed as reduction of current amplitude at 8 uM after 2 mins by two-electrode voltage clamp assay relative to control
[4] = target: Potassium voltage-gated channel subfamily A member 1 (Mus musculus) (UniProt P16388); test: Inhibition of mouse Kv1.1 channel expressed in Xenopus laevis oocytes assessed as -50 mV current-induced channel closing time at 15 uM after 2 mins by two-electrode voltage clamp assay (reference value: 14.6 +/- 0.3 ms)
[5] = target: Potassium voltage-gated channel subfamily A member 1 (Mus musculus) (UniProt P16388); test: Inhibition of mouse Kv1.1 channel expressed in Xenopus laevis oocytes assessed as decrease in +60 mV current-induced time constant of activation at 15 uM after 2 mins by two-electrode voltage clamp assay relative to control
[6] = target: Potassium voltage-gated channel subfamily A member 1 (Mus musculus) (UniProt P16388); test: Inhibition of mouse Kv1.1 channel expressed in Xenopus laevis oocytes assessed as reduction of current amplitude at 15 uM after 2 mins by two-electrode voltage clamp assay relative to control
[7] = target: Potassium voltage-gated channel subfamily A member 1 (Mus musculus) (UniProt P16388); test: Inhibition of mouse Kv1.1 channel expressed in Xenopus laevis oocytes assessed as reduction of current amplitude at 20 uM after 2 mins by two-electrode voltage clamp assay relative to control
[8] = target: Potassium voltage-gated channel subfamily A member 1 (Mus musculus) (UniProt P16388); test: Inhibition of mouse Kv1.1 channel expressed in Xenopus laevis oocytes assessed as -50 mV current-induced channel closing time at 20 uM after 2 mins by two-electrode voltage clamp assay (reference value: 14.6 +/- 0.3 ms)
[9] = target: Potassium voltage-gated channel subfamily A member 1 (Mus musculus) (UniProt P16388); test: Inhibition of mouse Kv1.1 channel expressed in Xenopus laevis oocytes assessed as decrease in +60 mV current-induced time constant of activation at 20 uM after 2 mins by two-electrode voltage clamp assay relative to control

SMILES	fold change (FC) [1]	TIME [2]	inhibition [3]	TIME [4]	fold change (FC) [5]	fold change (FC) [6]	fold change (FC) [7]	TIME [8]	fold change (FC) [9]
NCCc1c(SSSc2[nH]c3cc(Br)ccc3c2CCN)[nH]c2cc(Br)ccc12	3	4.06e-06 h	35%						
NCCc1c(SSc2[nH]c3cc(Br)ccc3c2CCN)[nH]c2cc(Br)ccc12	3	4.94e-06 h	15%	3.81e-06 h	5	0.69			
NCCc1c(Sc2[nH]c3cc(Br)ccc3c2CCN)[nH]c2cc(Br)ccc12							0.59	9.28e-06 h	5
